ChEMBL document CHEMBL4184154, “Docking based design of diastereoisomeric MTCA as GPIIb/IIIa receptor inhibitor” (Bioorg Med Chem Lett, 2017)
Calls of active or inactive are those of the source. No cut-off for these calls is given here. Where a SMILES comes first, the peptide text is derived from it. Bridges are numbered along the chain shown (N, C = ends). [ ]: non-standard residue; d: D form. hArg = N=C(N)NCCCC[C@H](N)C(=O)O; Mpa = O=C(O)CCS

What was measured:
[1] = system: Rattus norvegicus; test: Anti-thrombotic activity in Sprague-Dawley rat arterial thrombosis model assessed as reduction in thrombus weight at 16.7 umol/kg, po pretreated for 30 mins followed by thrombosis induction measured after 15 mins; type: functional, organism-based
[2] = molecular target: T1, Integrin subunit alpha 2b/beta-3 (Rattus norvegicus) (UniProt D3ZAC0+Q8R2H2); test: Inhibition of GP2b/3a in rat platelet-rich plasma assessed as reduction in arachidonic acid-induced platelet aggregation at 10^-8 to 10^-5 M after 5 mins by aggregometric analysis
[3] = system: Platelet; test: Antiplatelet activity in rat platelet-rich plasma assessed as inhibition of arachidonic acid-induced platelet aggregation by atomic force microscopic method; type: functional
[4] = system: Rattus norvegicus; test: Anti-thrombotic activity in Sprague-Dawley rat arterial thrombosis model assessed as reduction in thrombus weight at 1 umol/kg, po pretreated for 30 mins followed by thrombosis induction measured after 15 mins; type: functional, organism-based
[5] = system: Rattus norvegicus; test: Antiplatelet activity in Sprague Dawley rat arterial thrombosis model assessed as downregulation of GP2b/3a protein expression in plasma administered at 1 umol/kg, po by ELISA; type: functional, organism-based
[6] = molecular target: T2, Integrin subunit alpha 2b/beta-3 (Rattus norvegicus, UniProt D3ZAC0+Q8R2H2); test: Binding affinity to GP2b/3a in rat blood assessed as conformational change by measuring soluble GP2b/3a levels after 12 hrs by UV-spectrophotometric analysis
T2 sequence (D3ZAC0 whole entry): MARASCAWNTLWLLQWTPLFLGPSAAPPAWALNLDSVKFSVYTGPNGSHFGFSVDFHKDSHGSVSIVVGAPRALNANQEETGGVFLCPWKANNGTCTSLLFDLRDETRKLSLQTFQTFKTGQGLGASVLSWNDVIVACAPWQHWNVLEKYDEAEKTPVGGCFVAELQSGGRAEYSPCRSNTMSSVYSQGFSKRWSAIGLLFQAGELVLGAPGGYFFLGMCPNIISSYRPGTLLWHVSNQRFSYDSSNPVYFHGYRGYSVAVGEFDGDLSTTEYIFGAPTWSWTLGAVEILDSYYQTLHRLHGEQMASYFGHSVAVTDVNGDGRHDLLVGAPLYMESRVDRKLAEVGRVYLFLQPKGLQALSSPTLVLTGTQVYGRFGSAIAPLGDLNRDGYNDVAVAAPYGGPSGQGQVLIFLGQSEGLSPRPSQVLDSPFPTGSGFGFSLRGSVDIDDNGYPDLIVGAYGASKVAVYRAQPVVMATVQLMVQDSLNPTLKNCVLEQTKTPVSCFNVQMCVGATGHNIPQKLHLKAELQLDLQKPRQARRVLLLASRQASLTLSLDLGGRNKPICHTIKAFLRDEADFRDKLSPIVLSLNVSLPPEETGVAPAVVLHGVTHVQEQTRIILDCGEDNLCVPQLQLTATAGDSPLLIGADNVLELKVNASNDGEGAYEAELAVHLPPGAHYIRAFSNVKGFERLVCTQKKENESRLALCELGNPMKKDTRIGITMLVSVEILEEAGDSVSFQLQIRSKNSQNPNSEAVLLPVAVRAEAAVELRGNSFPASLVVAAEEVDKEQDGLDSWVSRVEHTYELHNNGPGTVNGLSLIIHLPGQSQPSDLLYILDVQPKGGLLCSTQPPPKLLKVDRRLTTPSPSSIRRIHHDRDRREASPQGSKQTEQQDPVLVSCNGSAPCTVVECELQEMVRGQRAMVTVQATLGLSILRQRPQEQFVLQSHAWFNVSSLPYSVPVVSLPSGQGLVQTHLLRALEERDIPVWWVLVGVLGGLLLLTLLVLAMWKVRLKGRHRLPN
T2 sequence (Q8R2H2 whole entry): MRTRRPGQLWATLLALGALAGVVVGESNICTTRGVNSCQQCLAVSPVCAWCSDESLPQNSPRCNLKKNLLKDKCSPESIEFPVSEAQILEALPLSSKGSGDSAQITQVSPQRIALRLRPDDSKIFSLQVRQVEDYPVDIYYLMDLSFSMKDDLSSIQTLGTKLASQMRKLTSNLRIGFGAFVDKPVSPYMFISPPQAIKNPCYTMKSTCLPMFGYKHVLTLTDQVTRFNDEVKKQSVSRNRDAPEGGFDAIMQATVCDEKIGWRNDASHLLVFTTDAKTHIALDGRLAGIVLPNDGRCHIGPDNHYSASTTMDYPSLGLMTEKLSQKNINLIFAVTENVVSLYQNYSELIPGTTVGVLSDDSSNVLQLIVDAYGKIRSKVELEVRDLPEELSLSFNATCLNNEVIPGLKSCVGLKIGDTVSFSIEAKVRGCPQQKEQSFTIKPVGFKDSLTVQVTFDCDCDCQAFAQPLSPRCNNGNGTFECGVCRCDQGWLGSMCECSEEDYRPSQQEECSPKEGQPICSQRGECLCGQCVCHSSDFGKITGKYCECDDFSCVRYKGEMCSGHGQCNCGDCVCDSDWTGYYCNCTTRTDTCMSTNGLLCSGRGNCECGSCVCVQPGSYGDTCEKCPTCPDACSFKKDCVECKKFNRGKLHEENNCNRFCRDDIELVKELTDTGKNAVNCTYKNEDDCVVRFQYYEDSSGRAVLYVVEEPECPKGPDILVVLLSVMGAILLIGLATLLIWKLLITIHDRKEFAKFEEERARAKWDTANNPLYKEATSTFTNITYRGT

[7] = molecular target: T1, Integrin subunit alpha 2b/beta-3 (Rattus norvegicus); test: Inhibition of GP2b/3a in rat platelet-rich plasma assessed as reduction in arachidonic acid-induced platelet aggregation at 10^-8 to 10^-2 M after 5 mins by aggregometric analysis

Compound | inhibition [2] | EC50 [6] | inhibition [7] | Activity [1] | Activity [3] | MEC [3] | Activity [4] | Activity [5]
CC(=O)Oc1ccccc1C(=O)O |  |  |  | Active |  |  |  | 
N=C(N)NCCCC[C@@H]1NC(=O)CCSSC[C@@H](C(N)=O)NC(=O)[C@@H]2CCCN2C(=O)[C@H](Cc2c[nH]c3ccccc23)NC(=O)[C@H](CC(=O)O)NC(=O)CNC1=O ([Mpa][hArg]GDWPC-NH2; disulfide 1-7) | Active |  |  |  |  |  |  | 
N=C(N)NCCC[C@H](N)C(=O)NCC(=O)N[C@@H](CC(=O)O)C(=O)N[C@@H](CO)C(=O)O |  |  | Active |  |  |  |  | 

More lines, main results first:

inhibition [2] | EC50 [6] | inhibition [7] | Compound | Activity [1] | Activity [3] | MEC [3] | Activity [4] | Activity [5]
Active | 1160 nM |  | C[C@H]1N[C@H](C(=O)O)Cc2c1[nH]c1ccccc21 |  | Dose-dependent effect | 1 ×10⁻⁶ M | Active | Active
Active | 1660 nM |  | C[C@@H]1N[C@H](C(=O)O)Cc2c1[nH]c1ccccc21 |  | Dose-dependent effect | 1 ×10⁻⁵ M | Active | Active
